Test results as given in patent US12403132B2, “Methods of treating bone marrow failure syndromes and compositions for use in the same” (The Board of Trustees of the Leland Stanford Junior …, priority 2020, dated 2025).

How the values were obtained:
Solubility = type: physicochemical; conditions: data not shown
CD235+ erythroblasts = assay: CD235+ erythroblast differentiation of CD34+ HSPCs from DBA patient bone marrow; type: cell-based, human; conditions: DBA patient samples, 5 μM SD208
Experimental: FIG. 8. NLK inhibition increases expansion of erythroid progenitors from human and murine models of DBA. Human cord blood CD34+ progenitors were transduced with lentivirus co-expressing GFP with shRNA against luciferase (shLuc), RPS19 (shRPS19) or RPL11 (shRPL11). After 36 hours cells GFP+ cells were differentiated in erythroid media in the presence or absence of 5 μM SD208 for 15 days. Cells were counted and assessed for cell surface expression of CD235. (a) The percentage of CD235+ cells was multiplied by the cell count and values were compared as a percentage of untreated controls. (b) Normalizing values relative to untreated RPS19-insufficiency progenitors facilitates direct comparison of erythropoiesis between untreated and SD208-treated cultures. (c) Approximately 3000 cells were removed from differentiating treatments at day 6 and NLK activity was assessed. […] Values were expressed as a percentage relative to untreated controls (e) and directly comparing the effect of SD208 on erythropoiesis in ribosomal-insufficiency by expressing values relative to untreated ribosome-insufficient cultures (f). […] After counting the total cell population, the ratio of CD235+ erythroblasts was determined by flow cytometry and number of CD235+ erythroblasts calculated. This was expressed as a percentage of the average number of erythroid cells present in untreated healthy controls. […]

zebrafish NLK 3′UTR = assay: Luciferase fused to zebrafish NLK 3′UTR in K562 cells; type: cell-based; conditions: transient transfection in K562, metformin 72 hrs

SMILES | solubility (Solubility) | mean increase in erythroid expansion (CD235+ erythroblasts) | decrease of luciferase activity, zebrafish 3′UTR (zebrafish NLK 3′UTR)
Fc1ccc(Cl)cc1-c1nc(Nc2ccncc2)c2nccnc2n1 [SD208] | poor solubility | 2.11 fold | –
CN(C)C(=N)N=C(N)N [metformin] | – | – | 43.6%
